# Measurements published in patent US20240059691A1 (KALVISTA PHARMACEUTICALS LIMITED, priority 2020, published 2024).
# Key:
# Human Factor XIIa = Human Factor XIIa (Homo sapiens (Human), UniProt P00748); test: Determination of FXIIa inhibition (fluorogenic substrate H-DPro-Phe-Arg-AFC, IC50 assay); assay type: biochemical; settings: substrate H-DPro-Phe-Arg-AFC at Km, 25° C.; class scale A-G
# In short: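 IC50 derived from % remaining activity, taken as the linear fluorescence rate over a 5 min read at 25° C. Substrate H-DPro-Phe-Arg-AFC was used at its Km (Michaelis-Menten) with human FXIIa and serial compound dilutions, 25° C.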
# Plasma Kallikrein = Plasma Kallikrein (Homo sapiens (Human), UniProt P03952); test: Determination of related protease inhibition: Plasma Kallikrein (fluorogenic substrate at Km); assay type: biochemical; settings: 25° C., read-out: IC50 (human PKal)
# Method: Determination of Related Protease Inhibition
# In vitro inhibition of related proteases was determined using an ([…] assay based on standard literature methods (see e.g. Shori et al., Biochem. Pharmacol., 1992, 43, 1209; Bouckaert et al., European Journal of Medicinal Chemistry 110 (2016) 181). Human serine protease enzymes Plasma Kallikrein, KLK1, FXa, Plasmin, Thrombin and Trypsin were assayed for enzymatic activity using an appropriate fluorogenic substrate at Km concentration, FXIa at fixed substrate concentration of 100 μM, and various concentrations of the test compound. Protease activity was measured by monitoring the accumulation of liberated fluorescence from the substrate over […]. The linear rate of fluorescence increase per minute was expressed as percentage (%) activity. IC50 values were calculated as the concentration of inhibitor giving 50% inhibition of the uninhibited enzyme activity (100%).
# Sequence of Human Factor XIIa (P00748 373-615): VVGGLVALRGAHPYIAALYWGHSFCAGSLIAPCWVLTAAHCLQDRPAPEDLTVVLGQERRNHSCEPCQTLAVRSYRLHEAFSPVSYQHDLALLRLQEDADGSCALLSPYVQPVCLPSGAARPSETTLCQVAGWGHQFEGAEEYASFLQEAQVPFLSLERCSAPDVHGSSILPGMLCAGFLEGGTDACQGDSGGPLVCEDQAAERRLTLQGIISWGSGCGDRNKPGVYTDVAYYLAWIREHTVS
# Sequence of Plasma Kallikrein (P03952 391-638): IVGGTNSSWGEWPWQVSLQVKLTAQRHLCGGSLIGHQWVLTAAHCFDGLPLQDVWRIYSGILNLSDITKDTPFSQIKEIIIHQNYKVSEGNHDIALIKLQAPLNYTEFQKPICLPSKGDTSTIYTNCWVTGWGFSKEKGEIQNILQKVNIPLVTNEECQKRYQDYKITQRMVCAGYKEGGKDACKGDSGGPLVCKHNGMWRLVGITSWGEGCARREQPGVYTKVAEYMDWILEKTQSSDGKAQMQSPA
# Sequence of Plasma Kallikrein (P03952 20-390 partner): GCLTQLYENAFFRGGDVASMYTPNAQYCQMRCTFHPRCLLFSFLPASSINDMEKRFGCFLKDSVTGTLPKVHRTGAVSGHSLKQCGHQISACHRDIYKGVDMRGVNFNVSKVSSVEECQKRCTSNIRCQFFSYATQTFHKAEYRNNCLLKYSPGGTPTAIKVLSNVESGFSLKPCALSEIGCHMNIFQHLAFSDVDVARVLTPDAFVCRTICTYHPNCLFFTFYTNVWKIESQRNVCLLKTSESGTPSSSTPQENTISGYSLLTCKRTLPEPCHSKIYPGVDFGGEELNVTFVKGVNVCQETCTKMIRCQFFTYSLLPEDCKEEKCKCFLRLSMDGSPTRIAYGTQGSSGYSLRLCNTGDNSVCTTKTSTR
Compound,IC50 (Human Factor XIIa) [µM],IC50 (Plasma Kallikrein) [µM]
"COc1ccc2c(NCc3ccc(NCC4CCN(C)CC4)nc3)ccnc2c1 [Example 1217, 7-methoxy-N-((6-(((1-methylpiperidin-4-yl)methyl)amino)pyridin-3-yl)methyl)quinolin-4-amine]",40 to 100,> 40
"Cc1cc2c(NCc3ccnc(OCC4CCN(C)CC4)c3)ccnc2[nH]1 [Example 4465, 2-methyl-N-((2-((1-methylpiperidin-4-yl)methoxy)pyridin-4-yl)methyl)-1H-pyrrolo[2,3-b]pyridin-4-amine]",1 to 3,> 100
"Nc1nccc2c(NCc3ccc(N4CCc5nccn5CC4)nc3)cccc12 [Example 1271, N5-((6-(5,6,8,9-tetrahydro-7H-imidazo[1,2-d][1,4]diazepin-7-yl)pyridin-3-yl)methyl)isoquinoline-1,5-diamine]",0.3 to 1,10 to 40
"Cc1n[nH]c2c1CCC2Nc1ccc(CNc2cccc3c(N)nccc23)cn1 (stereo not drawn) [Example 1119, N5-((6-((3-methyl-1,4,5,6-tetrahydrocyclopenta[c]pyrazol-6-yl)amino)pyridin-3-yl)methyl)isoquinoline-1,5-diamine]",10 to 40,10 to 40
"CN1CCC(CNc2ccc(CNc3cc(F)c4c(N)nccc4c3)cn2)CC1 [Example 1245, 8-fluoro-N6-((6-(((1-methylpiperidin-4-yl)methyl)amino)pyridin-3-yl)methyl)isoquinoline-1,6-diamine]",3 to 10,3 to 10
"CC(C)(O)[C@H]1CCN(c2ccc(CNc3cccc4c(N)nccc34)cn2)C1 [Example 1131, 2-[(3S)-1-[5-[[(1-Amino-5-isoquinolyl)amino]methyl]-2-pyridyl]pyrrolidin-3-yl]propan-2-ol]",1 to 3,10 to 40
"Cc1cnc2[nH]c(Cl)cc2c1NCc1ccc(NCC2CCN(C)CC2)nc1 [Example 1255, 2-chloro-5-methyl-N-((6-(((1-methylpiperidin-4-yl)methyl)amino)pyridin-3-yl)methyl)-1H-pyrrolo[2,3-b]pyridin-4-amine]",3 to 10,> 40
"Cc1cc2c(NCc3ccc(NCC4CCN(C)CC4)nc3)ncnc2[nH]1 [Example 1254, 6-methyl-N-((6-(((1-methylpiperidin-4-yl)methyl)amino)pyridin-3-yl)methyl)-7H-pyrrolo[2,3-d]pyrimidin-4-amine]",10 to 40,> 40
"Cc1cn2c(n1)CC(COc1cc(CNc3cccc4c(N)nccc34)ccn1)CC2 (single isomer, unassigned) [Example 4447, (R*)-N5-((2-((2-methyl-5,6,7,8-tetrahydroimidazo[1,2-a]pyridin-7-yl)methoxy)pyridin-4-yl)methyl)isoquinoline-1,5-diamine]",0.3 to 1,3 to 10
"CN1CCC(OCc2ccc(CN(C)c3ccc4c(N)nccc4c3)cc2)CC1 [Example 2190, N6-methyl-N6-(4-(((1-methylpiperidin-4-yl)oxy)methyl)benzyl)isoquinoline-1,6-diamine]",1 to 3,3 to 10
"Nc1nccc2c(NCc3ccc(N4CCn5cnnc5C4)nc3)cccc12 [Example 1276, N5-((6-(5,6-dihydro-[1,2,4]triazolo[4,3-a]pyrazin-7(8H)-yl)pyridin-3-yl)methyl)isoquinoline-1,5-diamine]",1 to 3,> 40
"Cc1cnc2[nH]ccc2c1NCc1ccc(NCC2CCN(C)CC2)nc1 [Example 1205, 5-methyl-N-((6-(((1-methylpiperidin-4-yl)methyl)amino)pyridin-3-yl)methyl)-1H-pyrrolo[2,3-b]pyridin-4-amine]",10 to 40,> 100
"CN1CCC(CNc2ccc(CNc3cc(C(F)(F)F)cc4[nH]c(Cl)cc34)cn2)CC1 [Example 1262, 2-chloro-N-((6-(((1-methylpiperidin-4-yl)methyl)amino)pyridin-3-yl)methyl)-6-(trifluoromethyl)-1H-indol-4-amine]",1 to 3,3 to 10
"Cc1cnc2n1CCC(COc1cc(CNc3cccc4c(N)nccc34)ccn1)C2 (single isomer, unassigned) [Example 4445, (R*)-N5-((2-((3-methyl-5,6,7,8-tetrahydroimidazo[1,2-a]pyridin-7-yl)methoxy)pyridin-4-yl)methyl)isoquinoline-1,5-diamine]",0.1 to 0.3,3 to 10
"Cc1cnc2n1CCC(COc1cc(CNc3cccc4c(N)nccc34)ccn1)C2 (stereo not drawn) [Example 4320, N5-[[2-[(3-methyl-5,6,7,8-tetrahydroimidazo[1,2-a]pyridin-7-yl)methoxy]-4-pyridyl]methyl]isoquinoline-1,5-diamine]",0.1 to 0.3,3 to 10
"CN1CCC(CNc2ccc(CNc3ccnc4[nH]c(C(N)=O)cc34)cn2)CC1 [Example 1252, 4-(((6-(((1-methylpiperidin-4-yl)methyl)amino)pyridin-3-yl)methyl)amino)-1H-pyrrolo[2,3-b]pyridine-2-carboxamide]",10 to 40,> 40
"CN1CCC(CNc2ccc(CNc3cc(F)c4cnccc4c3)cn2)CC1 [Example 1207, 8-fluoro-N-((6-(((1-methylpiperidin-4-yl)methyl)amino)pyridin-3-yl)methyl)isoquinolin-6-amine]",40 to 100,> 100
"Nc1ncc(Cl)c2cc(NCc3ccc(OC4CCn5ccnc5C4)nc3)ccc12 (stereo not drawn) [Example 1050, 4-chloro-6-N-[(6-{5H,6H,7H,8H-imidazo[1,2-a]pyridin-7-yloxy}pyridin-3-yl)methyl]isoquinoline-1,6-diamine]",1 to 3,> 40
"Nc1nccc2c(NCc3ccc(N4CCn5ncc(CO)c5C4)nc3)cccc12 [Example 1269, (5-(5-(((1-aminoisoquinolin-5-yl)amino)methyl)pyridin-2-yl)-4,5,6,7-tetrahydropyrazolo[1,5-a]pyrazin-3-yl)methanol]",10 to 40,> 40
"CN1CCC(CNc2ccc(CNc3ccc4c[nH]c(=O)cc4c3)cn2)CC1 [Example 1201, 6-(((6-(((1-methylpiperidin-4-yl)methyl)amino)pyridin-3-yl)methyl)amino)isoquinolin-3(2H)-one]",40 to 100,> 40
"Nc1nccc2c(NCc3cnc(NCCC(=O)N4CCCC4)nc3)cccc12 [Example 1039, 3-[(5-{[(1-aminoisoquinolin-5-yl)amino]methyl}pyrimidin-2-yl)amino]-1-(pyrrolidin-1-yl)propan-1-one]",10 to 40,> 40
"CN1CCC(CNc2ccc(CNc3cc(Cl)c4cnccc4c3)cn2)CC1 [Example 1208, 8-chloro-N-((6-(((1-methylpiperidin-4-yl)methyl)amino)pyridin-3-yl)methyl)isoquinolin-6-amine]",3 to 10,> 40
"Nc1nccc2c(NCc3ccc(N4CCn5nccc5C4)nc3)cccc12 [Example 1156, N5-((6-(6,7-dihydropyrazolo[1,5-a]pyrazin-5(4H)-yl)pyridin-3-yl)methyl)isoquinoline-1,5-diamine]",10 to 40,> 40
"CN1CCC(CNc2ccc(CNc3cccc4c(N)ncc(F)c34)cn2)CC1 [Example 1194, 4-fluoro-N5-((6-(((1-methylpiperidin-4-yl)methyl)amino)pyridin-3-yl)methyl)isoquinoline-1,5-diamine]",3 to 10,> 40
"CN1CCC(CNc2ccc(CNc3c(F)cnc4[nH]ccc34)cn2)CC1 [Example 1206, 5-fluoro-N-((6-(((1-methylpiperidin-4-yl)methyl)amino)pyridin-3-yl)methyl)-1H-pyrrolo[2,3-b]pyridin-4-amine]",40 to 100,> 100
"CN1CCC(COc2cc(CNc3cccc4c(N)ncc(F)c34)ccn2)CC1 [Example 4461, 4-fluoro-N5-((2-((1-methylpiperidin-4-yl)methoxy)pyridin-4-yl)methyl)isoquinoline-1,5-diamine]",3 to 10,> 40
"Nc1nccc2c(NCc3ccc(N4CCn5ncc(O)c5C4)nc3)cccc12 [Example 1312, 5-(5-(((1-aminoisoquinolin-5-yl)amino)methyl)pyridin-2-yl)-4,5,6,7-tetrahydropyrazolo[1,5-a]pyrazin-3-ol]",3 to 10,> 40
"Nc1ncc(Cl)c2cc(NCc3ccnc(OCC4CCn5ccnc5C4)c3)ccc12 (stereo not drawn) [Example 4300, 4-Chloro-N6-[[2-(5,6,7,8-tetrahydroimidazo[1,2-a]pyridin-7-ylmethoxy)-4-pyridyl]methyl]isoquinoline-1,6-diamine]",0.1 to 0.3,10 to 40
"Nc1ncc(Cl)c2cc(NCc3cnc(OCC4CCn5ccnc5C4)nc3)ccc12 (stereo not drawn) [Example 1052, 4-Chloro-N6-[[2-(5,6,7,8-tetrahydroimidazo[1,2-a]pyridin-7-ylmethoxy)pyrimidin-5-yl]methyl]isoquinoline-1,6-diamine]",0.3 to 1,> 40
"CN1CCC(COc2cc(CNc3cnc4c(N)nccc4c3)ccn2)CC1 [Example 4293, 3-N-({2-[(1-methylpiperidin-4-yl)methoxy]pyridin-4-yl}methyl)-1,7-naphthyridine-3,8-diamine]",0.3 to 1,> 40
